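Interpolation was linear, between the two tested concentrations surrounding the appropriate level; five concentrations were tested over 48 hours in 96-well plates. TGI: concentration producing complete growth inhibition.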
Assays:
Experiment in all cases: NCI-60 cell line screen, 48 h
786-0 renal = system: 786-0 renal
A498 renal = system: A498 renal
A549 NSCLC = system: A549 NSCLC
ACHN renal = system: ACHN renal
BT-549 breast = system: BT-549 breast
CAKI-1 renal = system: CAKI-1 renal
CCRF-CEM leukemia = system: CCRF-CEM leukemia
COLO 205 colon = system: COLO 205 colon
DU-145 prostate = system: DU-145 prostate
EKVX NSCLC = system: EKVX NSCLC
HCC-2998 colon = system: HCC-2998 colon
HCT-116 colon = system: HCT-116 colon
HCT-15 colon = system: HCT-15 colon
HL-60(TB) leukemia = system: HL-60(TB) leukemia
HOP-62 NSCLC = system: HOP-62 NSCLC
HOP-92 NSCLC = system: HOP-92 NSCLC
HS 578T breast = system: HS 578T breast
HT29 colon = system: HT29 colon
IGROV1 ovarian = system: IGROV1 ovarian
K-562 leukemia = system: K-562 leukemia
KM12 colon = system: KM12 colon
LOX IMVI melanoma = system: LOX IMVI melanoma
M14 melanoma = system: M14 melanoma
MALME-3M melanoma = system: MALME-3M melanoma
MCF7 breast = system: MCF7 breast
MDA-MB-231 breast = system: MDA-MB-231 breast
MDA-MB-435 = system: MDA-MB-435
MDA-N = system: MDA-N
MOLT-4 leukemia = system: MOLT-4 leukemia
NCI-H226 lung = system: NCI-H226 lung
NCI-H23 lung = system: NCI-H23 lung
NCI-H460 lung = system: NCI-H460 lung
NCI-H522 lung = system: NCI-H522 lung
NCI/ADR-RES ovarian = system: NCI/ADR-RES ovarian
OVCAR-3 ovarian = system: OVCAR-3 ovarian
OVCAR-4 ovarian = system: OVCAR-4 ovarian
OVCAR-5 ovarian = system: OVCAR-5 ovarian
OVCAR-8 ovarian = system: OVCAR-8 ovarian
PC-3 prostate = system: PC-3 prostate
RXF 393 renal = system: RXF 393 renal
SF-268 CNS = system: SF-268 CNS
SF-295 CNS = system: SF-295 CNS
SK-MEL-28 melanoma = system: SK-MEL-28 melanoma
SK-MEL-5 melanoma = system: SK-MEL-5 melanoma
SK-OV-3 ovarian = system: SK-OV-3 ovarian
SN12C renal = system: SN12C renal
SNB-19 CNS = system: SNB-19 CNS
SNB-75 CNS = system: SNB-75 CNS
SR leukemia = system: SR leukemia
SW-620 colon = system: SW-620 colon
T-47D breast = system: T-47D breast
TK-10 renal = system: TK-10 renal
U251 CNS = system: U251 CNS
UACC-257 melanoma = system: UACC-257 melanoma
UACC-62 melanoma = system: UACC-62 melanoma
UO-31 renal = system: UO-31 renal
RPMI-8226 leukemia = system: RPMI-8226 leukemia
SF-539 CNS = system: SF-539 CNS
SK-MEL-2 melanoma = system: SK-MEL-2 melanoma

## OC1(C2(c3ccc(Cl)cc3)CCCC2)c2ccccc2C2=NCCN21 (centres undefined)
786-0 renal
  TGI: 27.3 µM
A498 renal
  TGI: 29.4 µM
A549 NSCLC
  TGI: 31.3 µM
ACHN renal
  TGI: 30.5 µM
BT-549 breast
  TGI: 31.5 µM
CAKI-1 renal
  TGI: 28.9 µM
CCRF-CEM leukemia
  TGI: 38.5 µM
COLO 205 colon
  TGI: 23.9 µM
DU-145 prostate
  TGI: 16.3 µM
EKVX NSCLC
  TGI: 31.6 µM
HCC-2998 colon
  TGI: 4 µM
HCT-116 colon
  TGI: 24.4 µM
HCT-15 colon
  TGI: 31 µM
HL-60(TB) leukemia
  TGI: 33.2 µM
HOP-62 NSCLC
  TGI: 32.6 µM
HOP-92 NSCLC
  TGI: 28.6 µM
HS 578T breast
  TGI: > 100 µM
HT29 colon
  TGI: 23.5 µM
IGROV1 ovarian
  TGI: 26.8 µM
K-562 leukemia
  TGI: 20.4 µM
KM12 colon
  TGI: 36.3 µM
LOX IMVI melanoma
  TGI: 28.3 µM
M14 melanoma
  TGI: 28.6 µM
MALME-3M melanoma
  TGI: 34.7 µM
MCF7 breast
  TGI: 32.7 µM
MDA-MB-231 breast
  TGI: 29.6 µM
MDA-MB-435
  TGI: 26.7 µM
MDA-N
  TGI: 29.7 µM
MOLT-4 leukemia
  TGI: 32.2 µM
NCI-H226 lung
  TGI: 33 µM
NCI-H23 lung
  TGI: 36.1 µM
NCI-H460 lung
  TGI: 29 µM
NCI-H522 lung
  TGI: 32.3 µM
NCI/ADR-RES ovarian
  TGI: 33.2 µM
OVCAR-3 ovarian
  TGI: 30.9 µM
OVCAR-4 ovarian
  TGI: 28.8 µM
OVCAR-5 ovarian
  TGI: 29.5 µM
OVCAR-8 ovarian
  TGI: 32 µM
PC-3 prostate
  TGI: 25.1 µM
RXF 393 renal
  TGI: 9.51 µM
SF-268 CNS
  TGI: 35.1 µM
SF-295 CNS
  TGI: 30.7 µM
SK-MEL-28 melanoma
  TGI: 31 µM
SK-MEL-5 melanoma
  TGI: 25.1 µM
SK-OV-3 ovarian
  TGI: 33.9 µM
SN12C renal
  TGI: 31.5 µM
SNB-19 CNS
  TGI: 30.5 µM
SNB-75 CNS
  TGI: 12.7 µM
SR leukemia
  TGI: 37.9 µM
SW-620 colon
  TGI: 48.6 µM
T-47D breast
  TGI: 22 µM
TK-10 renal
  TGI: 28.9 µM
U251 CNS
  TGI: 28.2 µM
UACC-257 melanoma
  TGI: 29.4 µM
UACC-62 melanoma
  TGI: 29.7 µM
UO-31 renal
  TGI: 24.1 µM

## CC1(C)OC2COC(c3[nH]nc4c(=O)[nH]c(=O)[nH]c34)C2O1 (centres undefined)
786-0 renal
  TGI: > 100 µM
A498 renal
  TGI: > 100 µM
A549 NSCLC
  TGI: > 100 µM
ACHN renal
  TGI: > 100 µM
BT-549 breast
  TGI: > 100 µM
CAKI-1 renal
  TGI: > 100 µM
COLO 205 colon
  TGI: > 100 µM
DU-145 prostate
  TGI: > 100 µM
EKVX NSCLC
  TGI: > 100 µM
HCT-116 colon
  TGI: > 100 µM
HCT-15 colon
  TGI: > 100 µM
HL-60(TB) leukemia
  TGI: > 100 µM
HOP-62 NSCLC
  TGI: > 100 µM
HOP-92 NSCLC
  TGI: > 100 µM
HS 578T breast
  TGI: > 100 µM
HT29 colon
  TGI: > 100 µM
IGROV1 ovarian
  TGI: > 100 µM
K-562 leukemia
  TGI: > 100 µM
KM12 colon
  TGI: > 100 µM
LOX IMVI melanoma
  TGI: > 100 µM
M14 melanoma
  TGI: > 100 µM
MALME-3M melanoma
  TGI: > 100 µM
MCF7 breast
  TGI: > 100 µM
MDA-MB-231 breast
  TGI: > 100 µM
MDA-MB-435
  TGI: > 100 µM
MDA-N
  TGI: > 100 µM
MOLT-4 leukemia
  TGI: > 100 µM
NCI-H226 lung
  TGI: > 100 µM
NCI-H23 lung
  TGI: > 100 µM
NCI-H460 lung
  TGI: > 100 µM
NCI-H522 lung
  TGI: > 100 µM
NCI/ADR-RES ovarian
  TGI: > 100 µM
OVCAR-3 ovarian
  TGI: > 100 µM
OVCAR-4 ovarian
  TGI: > 100 µM
OVCAR-5 ovarian
  TGI: > 100 µM
OVCAR-8 ovarian
  TGI: > 100 µM
PC-3 prostate
  TGI: > 100 µM
RPMI-8226 leukemia
  TGI: > 100 µM
RXF 393 renal
  TGI: > 100 µM
SF-268 CNS
  TGI: > 100 µM
SF-295 CNS
  TGI: > 100 µM
SF-539 CNS
  TGI: > 100 µM
SK-MEL-2 melanoma
  TGI: > 100 µM
SK-MEL-28 melanoma
  TGI: > 100 µM
SK-MEL-5 melanoma
  TGI: > 100 µM
SK-OV-3 ovarian
  TGI: > 100 µM
SN12C renal
  TGI: > 100 µM
SNB-19 CNS
  TGI: > 100 µM
SR leukemia
  TGI: > 100 µM
SW-620 colon
  TGI: > 100 µM
T-47D breast
  TGI: > 100 µM
TK-10 renal
  TGI: > 100 µM
U251 CNS
  TGI: > 100 µM
UACC-257 melanoma
  TGI: > 100 µM
UACC-62 melanoma
  TGI: > 100 µM
UO-31 renal
  TGI: > 100 µM

## Nc1ncnc2c1cnn2COCC(O)CO (centres undefined)
786-0 renal
  TGI: > 100 µM
A498 renal
  TGI: > 100 µM
A549 NSCLC
  TGI: > 100 µM
ACHN renal
  TGI: > 100 µM
BT-549 breast
  TGI: > 100 µM
CAKI-1 renal
  TGI: > 100 µM
CCRF-CEM leukemia
  TGI: > 100 µM
COLO 205 colon
  TGI: > 100 µM
DU-145 prostate
  TGI: > 100 µM
EKVX NSCLC
  TGI: > 100 µM
HCC-2998 colon
  TGI: > 100 µM
HCT-116 colon
  TGI: > 100 µM
HCT-15 colon
  TGI: > 100 µM
HOP-62 NSCLC
  TGI: > 100 µM
HOP-92 NSCLC
  TGI: > 100 µM
HS 578T breast
  TGI: > 100 µM
HT29 colon
  TGI: > 100 µM
IGROV1 ovarian
  TGI: > 100 µM
K-562 leukemia
  TGI: > 100 µM
KM12 colon
  TGI: > 100 µM
LOX IMVI melanoma
  TGI: > 100 µM
M14 melanoma
  TGI: > 100 µM
MALME-3M melanoma
  TGI: > 100 µM
MCF7 breast
  TGI: > 100 µM
MDA-MB-231 breast
  TGI: > 100 µM
MDA-MB-435
  TGI: > 100 µM
MDA-N
  TGI: > 100 µM
MOLT-4 leukemia
  TGI: > 100 µM
NCI-H226 lung
  TGI: > 100 µM
NCI-H23 lung
  TGI: > 100 µM
NCI-H460 lung
  TGI: > 100 µM
NCI-H522 lung
  TGI: > 100 µM
NCI/ADR-RES ovarian
  TGI: > 100 µM
OVCAR-3 ovarian
  TGI: > 100 µM
OVCAR-4 ovarian
  TGI: > 100 µM
OVCAR-5 ovarian
  TGI: > 100 µM
OVCAR-8 ovarian
  TGI: > 100 µM
PC-3 prostate
  TGI: > 100 µM
RPMI-8226 leukemia
  TGI: > 100 µM
RXF 393 renal
  TGI: > 100 µM
SF-268 CNS
  TGI: > 100 µM
SF-295 CNS
  TGI: > 100 µM
SF-539 CNS
  TGI: > 100 µM
SK-MEL-2 melanoma
  TGI: > 100 µM
SK-MEL-28 melanoma
  TGI: > 100 µM
SK-MEL-5 melanoma
  TGI: > 100 µM
SK-OV-3 ovarian
  TGI: > 100 µM
SN12C renal
  TGI: > 100 µM
SNB-19 CNS
  TGI: > 100 µM
SR leukemia
  TGI: > 100 µM
SW-620 colon
  TGI: > 100 µM
T-47D breast
  TGI: > 100 µM
TK-10 renal
  TGI: > 100 µM
U251 CNS
  TGI: > 100 µM
UACC-257 melanoma
  TGI: > 100 µM
UACC-62 melanoma
  TGI: > 100 µM
UO-31 renal
  TGI: > 100 µM
